# In patent US20250186391A1, “ORAL COMPLEMENT FACTOR D INHIBITORS” (BioCryst Pharmaceuticals, Inc., priority 2019, published 2025):
# Target: Factor D (Homo sapiens (Human), UniProt P00746)
# Experiment: Factor D esterolytic assay
# Format: biochemical
# Settings: Z-Lys-SBzl substrate, 100 mM HEPES, 500 mM NaCl, pH 7.5, 10% DMSO; tested a minimum of three times; read-out: Measured Ki (IC50) Value for Compounds: IC50
# In short: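 Chromogenic thioesterase read-out: Z-Lys-SBzl (1.29 mM) hydrolysis by human Factor D, thiol detected with DTNB at 405 nm (690 nm background subtracted) for 600 s. Run in 100 mM HEPES, 500 mM NaCl, pH 7.5, 10% DMSO, substrate added immediately or after room-temperature preincubation. IC50 from percent inhibition versus enzyme alone, n≥3.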
# Chain of Factor D (P00746 26-253): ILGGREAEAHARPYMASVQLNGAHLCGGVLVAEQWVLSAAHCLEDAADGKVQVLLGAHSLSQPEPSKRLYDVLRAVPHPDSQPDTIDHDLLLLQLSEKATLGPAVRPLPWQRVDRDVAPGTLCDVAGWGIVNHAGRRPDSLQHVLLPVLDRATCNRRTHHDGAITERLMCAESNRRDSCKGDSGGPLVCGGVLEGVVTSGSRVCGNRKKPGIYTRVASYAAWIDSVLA
row,IC50,Compound
1,< 1000 nM,"COc1ccc(CC(=O)O)c(OCc2c(C)oc3ccc(-c4ccnc(CN)c4)cc23)c1 [Compound 203d, 2-(2-((5-(2-(aminomethyl)pyridin-4-yl)-2-methylbenzofuran-3-yl)methoxy)-4-methoxyphenyl)acetic acid]"
2,< 1000 nM,"COc1cc(-c2cccc(CN)c2)cc2c(COc3cc(C)ccc3CC(=O)O)coc12 [Compound 252c, 2-(2-((5-(3-(aminomethyl)phenyl)-7-methoxybenzofuran-3-yl)methoxy)-4-methylphenyl)acetic acid]"
3,> 10000 nM,"COc1c(-c2ccc3c(c2)c(COc2ccccc2CC(=O)O)nn3C2CCC2)ccnc1CN [Compound 328d, 2-(2-((5-(2-(aminomethyl)-3-methoxypyridin-4-yl)-1-cyclobutyl-1H-indazol-3-yl)methoxy)phenyl)acetic acid]"
4,< 1000 nM,"Cc1ccc(CC(=O)O)c(OCc2c3cc(-c4cccc(CN)c4)ccc3nn2C)c1 [Compound 211c, 2-(2-((5-(3-(aminomethyl)phenyl)-2-methyl-2H-indazol-3-yl)methoxy)-4-methylphenyl)acetic acid]"
5,< 1000 nM,"CC(C)n1nc(COc2ccccc2CC(=O)O)c2cc(-c3cccc(CN)c3)ccc21 [Compound 182e, 2-(2-((5-(3-(aminomethyl)phenyl)-1-isopropyl-1H-indazol-3-yl)methoxy)phenyl)acetic acid]"
6,< 1000 nM,"Cc1oc2c(cc(-c3cccc(CN)c3)c3occc32)c1COc1ccccc1CC(=O)O [Compound 233h, 2-(2-((5-(3-(aminomethyl)phenyl)-2-methylbenzo[1,2-b:3,4-b′]difuran-3-yl)methoxy)phenyl)acetic acid]"
7,< 1000 nM,"COc1ccc(CC(=O)O)c(OCc2c3cc(-c4cccc(CN)c4)ccc3nn2C(C)C)c1 [Compound 255c, 2-(2-((5-(3-(aminomethyl)phenyl)-2-isopropyl-2H-indazol-3-yl)methoxy)-4-methoxyphenyl)acetic acid]"
8,< 1000 nM,"NCc1cccc(-c2cc3c(COc4ccccc4CC(=O)O)coc3c3ccoc23)c1F [Compound 287b, 2-(2-((5-(3-(aminomethyl)-2-fluorophenyl)benzo[1,2-b:3,4-b′]difuran-3-yl)methoxy)phenyl)acetic acid]"
9,< 1000 nM,"NCc1cccc(-c2ccc3oc(F)c(COc4ccccc4CC(=O)O)c3c2)c1 [Compound 204c, 2-(2-((5-(3-(aminomethyl)phenyl)-2-fluorobenzofuran-3-yl)methoxy)phenyl)acetic acid]"

# The next lines start with the compound.
row,Compound,IC50
1,"Cn1nc(COc2ccccc2CC(=O)O)c2cc(-c3cccc(CN)c3)ccc21 [Compound 117d, 2-(2-((5-(3-(aminomethyl)phenyl)-1-methyl-1H-indazol-3-yl)methoxy)phenyl)acetic acid]",< 1000 nM
2,"Cn1cc(-c2cc(-c3cccc(CN)c3)cc3c(COc4ccccc4CC(=O)O)coc23)cn1 [Compound 72h, 2-(2-((5-(3-(aminomethyl)phenyl)-7-(1-methyl-1H-pyrazol-4-yl)benzofuran-3-yl)methoxy)phenyl)acetic acid]",< 1000 nM
3,"COc1ccc(CC(=O)O)c(OCc2c(-c3ccc(F)cc3)oc3ccc(-c4cccc(CN)c4)cc23)c1 [Compound 168c, 2-(2-((5-(3-(aminomethyl)phenyl)-2-(4-fluorophenyl)benzofuran-3-yl)methoxy)-4-methoxyphenyl)acetic acid]",< 1000 nM
4,"CC(O)c1cc(-c2cccc(CN)c2)c2oc(COc3ccccc3CC(=O)O)cc2c1 (stereo not drawn) [Compound 31, 2-(2-((7-(3-(aminomethyl)phenyl)-5-(1-hydroxyethyl)benzofuran-2-yl)methoxy)phenyl)acetic acid]",< 1000 nM
5,"NCc1cccc(-c2ccc3occ(COc4cc(F)ccc4CC(=O)O)c3c2)c1 [Compound 39f, 2-(2-((5-(3-(aminomethyl)phenyl)benzofuran-3-yl)methoxy)-4-fluorophenyl)acetic acid]",< 1000 nM
6,"NCc1cccc(-c2cccc3cc(COc4ccccc4CC(=O)O)ccc23)c1 [Compound 41d, 2-(2-((5-(3-(aminomethyl)phenyl)naphthalen-2-yl)methoxy)phenyl)acetic acid]",> 10000 nM
7,"CCOC(=O)Nc1cc(-c2cccc(CN)c2)cc2c(COc3ccccc3CC(=O)O)c(C(=O)O)oc12 [Compound 102c, 5-(3-(aminomethyl)phenyl)-3-((2-(carboxymethyl)phenoxy)methyl)-7-((ethoxycarbonyl)amino)benzofuran-2-carboxylic acid]",< 1000 nM
8,"CC(C)(C)c1oc2ccc(-c3cccc(CN)c3)cc2c1COc1cc(F)ccc1CC(=O)O [Compound 173c, 2-(2-((5-(3-(aminomethyl)phenyl)-2-(tert-butyl)benzofuran-3-yl)methoxy)-4-fluorophenyl)acetic acid]",< 1000 nM
9,"NCc1cccc(-c2ccc3oc(C(F)F)c(COc4ccccc4CC(=O)O)c3c2)c1 [Compound 139c, 2-(2-((5-(3-(aminomethyl)phenyl)-2-(difluoromethyl)benzofuran-3-yl)methoxy)phenyl)acetic acid]",< 1000 nM
10,"COc1ccc(CC(=O)O)c(OCc2c(C(C)(C)C)oc3ccc(-c4cccc(CN)c4)cc23)c1 [Compound 174c, 2-(2-((5-(3-(aminomethyl)phenyl)-2-(tert-butyl)benzofuran-3-yl)methoxy)-4-methoxyphenyl)acetic acid]",< 1000 nM
11,"NCc1cccc(-c2ccc3occ(COc4cc(N)ccc4CC(=O)O)c3c2)c1 [Compound 84b, 2-(4-amino-2-((5-(3-(aminomethyl)phenyl)benzofuran-3-yl)methoxy)phenyl)acetic acid]",< 1000 nM
12,"NCc1cccc(-c2ccc3c(c2)c(COc2ccccc2CC(=O)O)nn3C2CCCCO2)c1 (stereo not drawn) [Compound 80d, 2-(2-((5-(3-(aminomethyl)phenyl)-1-(tetrahydro-2H-pyran-2-yl)-1H-indazol-3-yl)methoxy)phenyl)acetic acid]",< 1000 nM
13,"NCc1cccc(-c2ccc3oc(C4CC4)c(COc4ccccc4CC(=O)O)c3c2)c1 [Compound 133f, 2-(2-((5-(3-(aminomethyl)phenyl)-2-cyclopropylbenzofuran-3-yl)methoxy)phenyl)acetic acid]",< 1000 nM
14,"COc1ccc(CC(=O)O)c(OCc2c(C(=O)O)oc3ccc(-c4cccc(CN)c4)cc23)c1 [Compound 61d, 5-(3-(aminomethyl)phenyl)-3-((2-(carboxymethyl)-5-methoxyphenoxy)methyl)benzofuran-2-carboxylic acid]",< 1000 nM
15,"NCc1cccc(-c2cccc3oc(COc4ccccc4CC(=O)O)cc23)c1 [Compound 26a, 2-(2-((4-(3-(aminomethyl)phenyl)benzofuran-2-yl)methoxy)phenyl)acetic acid]",< 1000 nM
16,"NCc1cccc(-c2cc(-c3c[nH]c4ccccc34)c3occ(COc4ccccc4CC(=O)O)c3c2)c1 [Compound 136d, 2-(2-((5-(3-(aminomethyl)phenyl)-7-(1H-indol-3-yl)benzofuran-3-yl)methoxy)phenyl)acetic acid]",< 1000 nM
17,"NCc1cccc(-c2ccc3occ(C(=O)Nc4ccccc4CC(=O)O)c3c2)c1 [Compound 10c, 2-(2-(5-(3-(aminomethyl)phenyl)benzofuran-3-carboxamido)phenyl)acetic acid]",< 1000 nM
18,"COc1ccc(CC(=O)O)c(OCc2coc3ccc(-c4ccnc(CN)c4)cc23)c1 [Compound 68e, 2-(2-((5-(2-(aminomethyl)pyridin-4-yl)benzofuran-3-yl)methoxy)-4-methoxyphenyl)acetic acid]",< 1000 nM
